Columns and labels:
[1] = organism: Rattus norvegicus; conditions: dose 3 mg/kg; route intravenous
Description: Change in systolic blood pressure(SBP) after intravenous administration of 3 mg/kg in rats compared with SBP before dosing

[2] = target: Glutamate receptor ionotropic, AMPA (Rattus norvegicus, UniProt P19490+P19491+P19492+P19493)
[3] = target: Glutamate receptor ionotropic, AMPA (Rattus norvegicus) (UniProt P19491+P19492+P19493+P19490); assay: Antagonist activity for [Ca2+] permeable Ionotropic glutamate receptor AMPA expressed in Xenopus oocytes by injection of rat brain mRNA at 1 uM; assay type: functional, cell-based; conditions: Oocyte

| SMILES | Delta SBP [1] [mmHg] | IC50 [2] [nM] | inhibition [3] [%] |
| --- | --- | --- | --- |
| CN1CCC(CNCCCCNCC2CCN(C(=O)Cc3cccc4ccccc34)CC2)CC1 | -50 | 570 | – |
| O=C(Cc1cccc2ccccc12)N1CCC(CNCCCCNCCCn2ccnc2)CC1 | -25 | 260 | – |
| O=C(Cc1cccc2ccccc12)NCCCCCC(=O)N1CCC(CNCCCCNCC2CCNCC2)CC1 | -40 | 420 | – |
| CN1CCCC1CNCCCCNCC1CCN(C(=O)Cc2cccc3ccccc23)CC1 (stereo not given) | 13 | – | 41 |
| O=C(Cc1cccc2ccccc12)N1CCC(CNCCCCNCCN2CCOCC2)CC1 | 0 | – | 18 |
| CN1CCCC1CCNCCCCNCC1CCN(C(=O)Cc2cccc3ccccc23)CC1 (stereo not given) | -55 | 780 | – |
| O=C(Cc1cccc2ccccc12)NCC(=O)N1CCC(CNCCCCNCC2CCNCC2)CC1 | -50 | 490 | – |
| CN1CCCCC1CNCCCCNCC1CCN(C(=O)Cc2cccc3ccccc23)CC1 (stereo not given) | 11 | – | 27 |
| O=C(Cc1cccc2ccccc12)N1CCC(CNCCCCNCC2CCN(c3ccncc3)CC2)CC1 | -43 | 170 | – |
| O=C(Cc1cccc2ccccc12)N1CCC(CNCCCCNCC2CCCCN2)CC1 (stereo not given) | 0 | 1100 | – |
| O=C(Cc1cccc2ccccc12)N1CCC(CNCCCCNCC2CCNCC2)CC1 | -120 | 1300 | – |
| NCCNCCCCNCC1CCN(C(=O)Cc2cccc3ccccc23)CC1 | -50 | 330 | – |
| NCCCNCCCCNCC1CCN(C(=O)Cc2cccc3ccccc23)CC1 | -35 | 320 | – |
| c1ccc2c(CCN3CCC(CNCCCCNCC4CCNCC4)CC3)cccc2c1 | – | – | 28 |
| O=C(Cc1cccc2ccccc12)N1CCC(CNCCCCNCCN2CCCCC2)CC1 | 5 | 190 | – |
| O=C(Cc1cccc2ccccc12)N1CCC(CNCCCCNCC2CCCN2)CC1 (stereo not given) | 0 | 730 | – |
| NC(=O)C[C@@H](NC(=O)Cc1cccc2ccccc12)C(=O)N1CCC(CNCCCCNCC2CCNCC2)CC1 | -75 | 270 | – |
| O=C(Cc1cccc2ccccc12)N1CCC(CNCCCCNCC2CCCNC2)CC1 (stereo not given) | -58 | 820 | – |

From ChEMBL document CHEMBL1134057, “Synthesis of polyamine derivatives having non-hypotensive Ca2 +-permeable AMPA receptor antagonist activity” (Bioorg Med Chem Lett, 2001)
